US10272055B2, “Therapeutic compounds and methods” (Regents of the University of Minnesota, priority 2014, dated 2019)
Entries after “also recorded” stand apart in the source; their conditions may differ. Where two headings read alike, the source gives them in different places.

Tests used:
[1] = system: AMPK; test: AMPK phosphorylation Western blot in MDA-MB-231; type: cell-based; settings: MDA-MB-231, 1 uM 14,15-EET, 24 hours
Protocol: FIG. 38 illustrates that 14,15-EET inactivates AMPK in MCF7 line but not in MDA-MB-231 line. Cells were plated in complete media in the presence of serum (10% FBS) and cultured at 37° C. with 5% CO2 and treated with 14,15-EET or EtOH control for 24 hours before harvesting. Total protein was extracted and analyzed by Western-blotting with GAPDH as an internal control.

[2] = system: AMPK; test: AMPK phosphorylation Western blot in MCF7; type: cell-based; settings: for AMPK phosphorylation relative to control: MCF7, 6 hours, metformin, buformin, phenformin 1 mM, HBB 20 uM
Protocol: Western blotting analysis was performed in triplicate.
Cells were plated in complete media in the presence of serum (10% FBS) and cultured at 37° C. with 5% CO2 and treated with biguanides for 6 hours before harvesting. Total protein was extracted and analyzed by Western-blotting with GAPDH as an internal control.
Cells were plated in complete media in the presence of serum (10% FBS) and cultured at 37° C. with 5% CO2 and treated with 14,15-EET or EtOH control for 24 hours before harvesting. Total protein was extracted and analyzed by Western-blotting with GAPDH as an internal control.

[3] = molecular target: CYP3A4 epoxygenase (Homo sapiens, UniProt P08684); test: CYP3A4 Supersome epoxygenase assay: EET synthesis from arachidonic acid, LC-ESI-MS/MS; settings: for inhibition of CYP3A4-mediated EETs synthesis: CYP3A4 Supersome, arachidonic acid 60 uM, 30 minutes, 37 C
CYP3A4 epoxygenase, sequence (P08684 whole entry): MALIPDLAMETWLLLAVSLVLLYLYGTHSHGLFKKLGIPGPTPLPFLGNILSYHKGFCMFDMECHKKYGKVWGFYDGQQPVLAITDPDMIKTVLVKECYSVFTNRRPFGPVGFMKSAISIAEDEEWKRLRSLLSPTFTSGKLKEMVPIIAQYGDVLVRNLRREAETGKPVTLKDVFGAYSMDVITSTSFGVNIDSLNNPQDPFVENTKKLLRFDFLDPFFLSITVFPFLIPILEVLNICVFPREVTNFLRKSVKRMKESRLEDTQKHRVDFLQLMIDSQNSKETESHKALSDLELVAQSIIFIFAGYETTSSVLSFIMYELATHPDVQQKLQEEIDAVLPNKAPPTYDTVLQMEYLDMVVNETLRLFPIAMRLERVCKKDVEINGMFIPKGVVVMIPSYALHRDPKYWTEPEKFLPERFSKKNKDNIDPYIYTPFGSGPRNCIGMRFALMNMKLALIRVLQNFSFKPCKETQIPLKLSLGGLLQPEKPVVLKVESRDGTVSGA
Protocol: Measurements are reported as percentage of control reactions performed with vehicle but no compound. A ^13C-EET recovery standard was used to control for recovery of EETs from extractions. […] EET measurements in these Supersome experiments are expressed as percentage of control reactions. Absolute EET measurements are determined by subtraction of regioisomer values in a baseline reaction lacking NADPH. Measurements were performed in triplicate and values are expressed as the mean±SD.
After the reaction, EETs were then extracted with 1 mL dichloromethane and reconstituted in methanol and analyzed by LC-ESI-MS/MS.

[4] = system: MDA-MB-231; test: MTT growth assay, MDA-MB-231 line; type: cell-based; settings: Homo sapiens, MDA-MB-231, 24 h, MTT assay at 24 hours, 10% FBS
Protocol: FIG. 30 illustrates HBB inhibits proliferation of MCF7 and MDA-MB-231 lines. Cells were plated in complete media in the presence of serum (10% FBS) and cultured at 37° C. with 5% CO2 and treated with HBB or DMSO vehicle. Growth was measured at 24 hours by MTT assay. Results were converted to percent growth of control and represented as mean±S.E. (n=8).

[5] = system: STAT3; test: STAT3 phosphorylation Western blot in MCF7; type: cell-based
Protocol: Western blotting analysis was performed (C=control, M=metform and H=HBB).
Total protein was extracted and analyzed by Western-blotting with GAPDH as an internal control.

[6] = system: MCF-7 cell line; test: MTT growth assay, MCF-7 line; type: cell-based; settings: Homo sapiens, MCF7, 24 h, read-out: IC50, MCF-7 growth
Protocol: The growth of the MCF-7 line was measured by MTT assay at 24 hours. Cells were plated in complete media in the presence of serum (10% FBS) and cultured at 37° C. with 5% CO2 and treated with the biguanide or DMSO vehicle. Growth was measured at 24 hours by MTT assay.
Cells were plated in complete media in the presence of serum (10% FBS) and cultured at 37° C. with 5% CO2 and treated with HBB or DMSO vehicle. Growth was measured at 24 hours by MTT assay.

[7] = system: MCF7 line; test: 14,15-EET protection against biguanide growth inhibition, MTT, MCF7; type: cell-based; settings: MCF-7, exogenous (±)-14,15-EET (1 uM)
Protocol: Cells were plated in complete media in the presence of serum (10% FBS) and cultured at 37° C. with 5% CO2 and treated with biguanides for 24 hours in the presence or absence of 1 uM 14,15-EET. Growth was then measured at 24 hour by MTT assay.

[8] = system: MCF7; test: NAC protection against HBB growth inhibition, MTT, MCF7; type: cell-based; settings: MCF7, 0.1 mM or 1 mM NAC, at IC50 of HBB
Protocol: FIG. 34 illustrates that N-acetylcysteine (NAC) protects MDA-MB-231 but not MCF7 against HBB-mediated growth inhibition. Cells were plated in complete media in the presence of serum (10% FBS) and cultured at 37° C. with 5% CO2 and treated with HBB in the presence of NAC or PBS control. Growth was then measured at 24 hours by MTT assay. Results were converted to percent growth of control and represented as mean±S.E. (n=8).

[9] = system: MCF-7 xenograft; test: MCF-7 xenograft in nude mice; type: in vivo; settings: metformin 40 mg/kg/day in drinking water vs vehicle
Protocol: FIG. 3A. MCF-7 xenograft with 3×10^6 cells in the 2nd mammary fat pad on day 0. HBB (4 mg/kg ip daily) (ν) or PBS (ρ) treatment began on day 1. * indicates P<0.05. FIG. 3B. MDAMB-231 xenograft with 1×10^6 cells in the 2nd mammary fat pad on day 0. HBB (4 mg/kg ip daily) (ν) or PBS (ρ) treatment began on day 1. N=20 mice per arm for each study; error bars are SEM.
MCF-7 cells were implanted in the mammary fat pad of 4-5 week mice and treatment was initiated when tumor size was ≥15 mm^3 by 2 sequential measurements with randomized assignment to the treatment arms.
FIG. 44A. Nude mice were inoculated with 3×10^6 MCF-7 cells and treated with vehicle (Δ) HBB at the MTD (4 mg/kg/day ip) (▪). (* indicates P<0.05). Error bars are SEM. […] The dose limiting toxicity was weight loss. At the MTD there was a well-tolerated 4% reduction of weight at 42 days (P<0.0001; data not shown). FIG. 44B. Nude mice were inoculated with 1×10^6MDA-MB-231 cells and treated with HBB at the MTD (4 mg/kg/day ip).

[10] = system: AA metabolism to EET in MCF-7 cells; test: EET regioisomer abundance in MCF-7 cells; type: cell-based; settings: 0.10 mM metformin, 6 h
[11] = molecular target: CYP3A4 nanodiscs (Homo sapiens, UniProt P08684); test: CYP3A4 nanodisc spin shift titration; type: binding; settings: no CPR; 156 uM and 1.1 mM metformin
CYP3A4 nanodiscs, sequence (P08684 whole entry): as above

[12] = system: CYP3A4; test: CYP3A4 protein level in MCF7 cells; type: cell-based; settings: MCF7, metformin 1 mM, 48 hours

With `CCCCCC1OC1CC=CCC=CCC=CCCCC(=O)O` (racemic) [14,15-EET, (±)-14,15-epoxyeicosatrienoic acid, reference compound] the “AMPK phosphorylation relative to control” value [1] was “no statistical significant change of AMPK phosphorylation” and the “AMPK phosphorylation relative to EtOH control” value ([2]; MCF7, 1 uM 14,15-EET, 24 hours) was “decreased phosphorylation of AMPK”.
`CCCCCCNC(=N)NC(=N)NCc1ccccc1.Cl` [HBB-HCl, N1-hexyl-N5-benzyl biguanide hydrochloride] was tested, and the IC50 ([3]; IC50, inhibition of CYP3A4 epoxygenase) was roughly 50 µM, the IC50 [4] was 20 µM and the “concentration that inhibits STAT3 phosphorylation” value [5] was greater than 10 µM. For the same compound, the “fold more potent than metformin, inhibition of Stat3 phosphorylation” value ([5]; vs metformin) was greater than 100 fold, the “concentration that activates AMPK phosphorylation” value [2] was greater than 10 µM and the “fold more potent than metformin, activation of AMPK phosphorylation” value ([2]; vs metformin) was greater than 100 fold. The IC50 ([6]; MTT assay at 24 hours, 10% FBS) was 20 µM and the “rescue of MCF-7 growth by 14,15-EET in the presence of the biguanide” value (from here on “rescue of MCF-7 growth by 14,15-EET”) [7] was “partially inhibited”.
In the case of `CCCCCCNC(=N)NC(=N)NCc1ncc[nH]1` [HIB 2-yl, N1-hexyl-N5-((1H-imidazol-2-yl)methyl)-biguanide], the IC50 ([6]; MTT assay at 24 hours, 10% FBS) is reported as greater than 150 µM.
`CCCCCCNC(=N)NC(=N)NCc1ccncc1` [HPB, N1-hexyl-N5-(pyridin-4-ylmethyl) biguanidine] showed an IC50 ([6]; MTT assay at 24 hours, 10% FBS) of 40 µM.
`CC(=O)N[C@@H](CS)C(=O)O` [NAC, N-acetylcysteine] was tested, and the “protection by NAC against HBB-mediated growth inhibition” value [8] was “failed to protect”.
In the case of `CCCCNC(=N)NC(=N)N` [buformin], the “AMPK phosphorylation relative to control” value [2] is reported as “increased phosphorylation of AMPK”, the IC50 [6] is reported as greater than 10000 µM and the “rescue of MCF-7 growth by 14,15-EET” value [7] is reported as “rescues the MCF-7 line; also recorded: partial rescue”.
`CN(C)C(=N)N=C(N)N` [metformin, reference compound] was tested, and the “inhibition of CYP3A4-mediated EETs synthesis” value [3] was “inhibit CYP3A4 epoxygenase; also recorded: significantly reduced EETs production”, the “tumor growth, MCF-7 xenograft” value [9] was “inhibits the MCF-7 xenograft” and the “tumor growth, MCF-7 xenograft” value ([9]; listed as Metformin) was “suppressed tumor growth”. For the same compound, the “abundance of EET regioisomers” value [10] was “reduced abundance”, the “binding to CYP3A4 nanodiscs” value [11] was “binds to functional CYP3A4 epoxygenase nanodiscs” and the CYP3A4 protein level [12] was “does not change CYP3A4 protein level”. For the same compound, the IC50 ([6]; MTT assay at 24 hours, 10% FBS) was greater than 10000 µM and the “rescue of MCF-7 growth by 14,15-EET” value [7] was “rescues the MCF-7 line; also recorded: partial rescue”.
For `[H]/N=C(/N)N/C(=N/[H])NCCc1ccccc1` [phenformin, reference compound], the “inhibition of CYP3A4-mediated EETs synthesis” value [3] was “inhibit CYP3A4 epoxygenase”, the “AMPK phosphorylation relative to control” value [2] was “increased phosphorylation of AMPK” and the IC50 ([6]; MTT assay at 24 hours, 10% FBS) was 8000 µM. The “rescue of MCF-7 growth by 14,15-EET” value [7] was “rescues the MCF-7 line; also recorded: partial rescue”.
